“And” between values parts separate entries of the source, which are not always exact repeats. Equal values may be shown once.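 Results reflect a 48-hour exposure of cells in 96-well plates to compound at five concentrations. GI50 is the concentration that inhibits growth by half. The concentration for full growth arrest is given as TGI.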
Columns and labels:
Assay in all cases: NCI-60 cell line screen, 48 h
[1] = test system: DU-145 prostate
[2] = test system: EKVX NSCLC
[3] = test system: HCT-15 colon
[4] = test system: HOP-92 NSCLC
[5] = test system: M14 melanoma
[6] = test system: OVCAR-4 ovarian
[7] = test system: OVCAR-5 ovarian
[8] = test system: PC-3 prostate
[9] = test system: UACC-257 melanoma
[10] = test system: UO-31 renal

| SMILES | GI50 [1] | TGI [1] | GI50 [2] | TGI [2] | GI50 [3] | TGI [3] | GI50 [4] | TGI [4] | GI50 [5] | TGI [5] | GI50 [6] | TGI [6] [µM] | GI50 [7] | TGI [7] | GI50 [8] | TGI [8] | GI50 [9] | TGI [9] | GI50 [10] | TGI [10] |
| --- | --- | --- | --- | --- | --- | --- | --- | --- | --- | --- | --- | --- | --- | --- | --- | --- | --- | --- | --- | --- |
| C[As](C)SCC(COC(=O)C(Cl)c1ccccc1)OC(=O)C(Cl)c1ccccc1 (stereo not drawn) | 1.24 µM | 16.9 µM | 2.44 µM | 24.3 µM | 0.229 µM | 4.02 µM | 0.381 µM | 3.9 µM | 0.614 µM | 15.7 µM | 4.38 µM | 18 | 6.69 µM | > 37.2 µM | 0.74 µM | 19.4 µM | 0.332 µM | 12.6 µM | 1.55 µM | > 44.4 µM |
| C=CC(=O)Nc1cc(C)ccc1Nc1nc(Nc2cc(OC)ncc2C)ncc1C(F)(F)F | 0.996 µM | 12.3 µM | 0.438 µM | 3.1 µM | 1.05 µM | > 28.5 µM | 0.188 µM | 0.981 µM | 0.0668 µM | 0.686 µM | 1.34 µM | > 100 | 0.227 µM | 2.14 µM | 2.18 µM | > 100 µM | 0.152 µM | 1.08 µM | 0.214 µM | 2.27 µM |
| CO/N=C(\C)c1ccc(Nc2cc(-c3ccccc3)nc3ccc(OC)cc23)cc1 | 5.36 µM | 21.3 µM | 3.27 µM | 8.53 µM | 3.17 µM | 11 µM | 2.14 µM | 6.77 µM | 2.35 µM | 4.77 µM | 7.81 µM | > 100 | 5.2 µM | 40.3 µM | 4.17 µM | 16.2 µM | 4.64 µM | > 100 µM | 5.19 µM | > 100 µM |
| Oc1ccc(-c2nc3ccccc3s2)cc1CN(Cc1ccccn1)Cc1ccccn1 | 1.26 µM | 20.8 µM | 1.2 µM | 14.9 µM | 0.149 µM | 14.3 µM | 4.19 µM | 36.7 µM | 0.548 µM | 4.6 µM | 0.787 µM | 12.8 | 2.92 µM | 29.8 µM | 1.09 µM | 21.8 µM | 3.1 µM | 13 µM | 0.0834 µM | 2.49 µM |
| Cc1nc(-c2cn3c(n2)-c2ccc(-c4cnn(C(C)(C)C(N)=O)c4)cc2OCC3)n(C(C)C)n1 | 1.72 µM and 2.15 µM | > 100 µM | 1.48 µM | > 10 µM | 0.219 µM and 0.314 µM | 39.9 µM and > 10 µM | 0.0211 µM and 0.0253 µM |  | 3.24 µM and 3.57 µM | 26 µM and > 10 µM |  | > 10 | 0.17 µM and 0.976 µM | 32.3 µM and > 10 µM | 0.249 µM and 0.374 µM | > 75.3 µM | 0.297 µM and 0.733 µM | 26.1 µM and > 10 µM | 0.185 µM and 0.14 µM | 15.3 µM and > 8.44 µM |
| C#CCSc1cc(Cl)c(C)cc1S(=O)(=O)Nc1nc2ccccc2o1 | 37.9 µM | > 100 µM | 43.4 µM | > 100 µM | 31.5 µM | 90 µM | 17.9 µM | 51.3 µM | 32.1 µM | 67.9 µM | 51 µM | > 100 | 51.6 µM | > 100 µM | 32.6 µM | > 100 µM | 29.4 µM | 81.6 µM | 23.8 µM | 52.8 µM |
| O=c1cc(-c2cccc3c2Sc2ccccc2S3)oc(N2CCOCC2)c1 | 8.19 µM | 20.5 µM | 10.2 µM | 25 µM | 8.68 µM | 24.3 µM | 6.91 µM | 21.9 µM | 11.1 µM | 24.3 µM | 11.2 µM | 31.9 | 13.5 µM | 28.3 µM | 6.26 µM | 20.9 µM | 13.9 µM | 27.1 µM | 1.79 µM | 15.8 µM |
| COc1cccc(NC(=O)c2sc3nc(C)c(C(O)c4ccccc4)cc3c2N)c1 (stereo not drawn) | 0.382 µM | 19.6 µM | 0.76 µM | 34.8 µM | 0.0924 µM | 12.4 µM | 4.21 µM | 26.9 µM | 0.199 µM | 17.4 µM | 0.811 µM | 32.7 | 0.611 µM | 19.2 µM | 0.49 µM | 22.3 µM | 2.72 µM | 35.1 µM | 0.85 µM | 18.9 µM |
| C[n+]1c2cc(N)ccc2cc2ccc(N)cc21 | 1.36 µM [middle of 4 runs] | 5.57 µM [middle of 4 runs] | 0.263 µM and 0.831 µM and 0.261 µM | 2.31 µM [middle of 4 runs] | 2.41 µM [middle of 4 runs] | 15.2 µM [middle of 4 runs] |  | 5.78 µM [middle of 4 runs] | 1.68 µM [middle of 4 runs] | 3.75 µM [middle of 4 runs] | 1.34 µM [middle of 4 runs] |  | 1.1 µM [middle of 4 runs] |  | 696 nM [middle of 4 runs] | 5.8 µM [middle of 4 runs] | 1.79 µM [middle of 4 runs] | 3.91 µM [middle of 4 runs] |  |  |
